These results are taken from patent US9682976B2, “Protein kinase C inhibitors and uses thereof” (Rigel Pharmaceuticals, Inc., priority 2012, dated 2017).

The test system of the assay is PKC mediated IL-2 production. In words: IL-2 ELISA, human primary T cell, anti CD3+CD28+. As to conditions: human primary T cells stimulated with αCD3 and αCD28, 24 hours. The assay is classed as cell-based. The procedure: Compounds 1-328 were tested in a whole cell functional assay for PKC mediated IL-2 production as follows. Human primary T cell isolation and culture: Human primary T cells were prepared as follows. Whole blood was obtained from a healthy volunteer, mixed 1:1 with PBS, layered on to Ficoll Hypaque (Amersham Pharmacia Biotech, Piscataway, N.J., Catalog #17-1440-03) in 2:1 blood/PBS:ficoll ratio and centrifuged for 30 minutes at 4° C. at 1750 rpm. The cells at the serum: ficoll interface were recovered and washed twice with 5 volumes of PBS. These freshly isolated human peripheral blood mononuclear cells were cultured in Yssel's medium containing 40 U/ml IL2 in a flask pre-coated with […] αCD3 and 5 μg/ml αCD28 (Anti-Human CD3, BD Pharmingen Catalog #555336, Anti-Human CD28, Beckman Coulter Catalog #IM1376). The cells were stimulated for 3-4 days, then transferred to a fresh flask and maintained in RPMI (RPMI-1640 with L-Glutamine; Mediatech, Inc., Herndon Va., cat. #10-040-CM) with 10% FBS and 40 U/ml IL-2. The primary T-cells were then washed twice with PBS to remove the IL-2.
Primary T cell stimulation and IL2 ELISA: Human primary T cells (100,000 cells per well) were pre-incubated with or without test compound in Yssel's medium for 1 hour at 37° C. Cells were then stimulated by transferring them to round-bottom 96-well plates pre-coated with […] αCD3 and 5 μg/ml αCD28. For counter assay, cells were instead stimulated by adding 8× stock solutions of PMA and ionomycin in Yssels (for final concentrations of 0.5 ng/ml PMA and 0.1 uM ionomycin, both from Calbiochem). Cells were incubated at 37° C. for 24 hours before 100 μL supernatants were harvested for quantification of IL-2 by ELISA using Human IL-2 Duoset ELISA Kit from R and D Systems, Cat. # DY202E.

`Cn1nnn(-c2cc(Nc3ncc(F)c(N[C@@H]4CCN5C(CCC5(C)C)C4)n3)c(F)cc2C2CC2)c1=O` (mixture of isomers) [Compound 25] yielded an EC50 of 1 to 10 µM.

Under “Homo sapiens, T-cell, 24 h”, `Fc1cc(C2CC2)c(-n2cnnn2)cc1Nc1ncc(F)c(NC2CCN3CCCC3C2)n1` (racemic) [Compound 24, (±)-N^2-(4-cyclopropyl-2-fluoro-5-(1H-tetrazol-1-yl)phenyl)-5-fluoro-n^4-(octahydroindolizin-7-yl)pyrimidine-2,4-diamine] registered an EC50 of 0.1 to 0.5 µM.

Consider `Cn1nnn(-c2cc(Nc3ncc(F)c(NC4CCN5C(CCC5(C)C)C4)n3)c(F)cc2C2CC2)c1=O` (racemic) [Compound 26, 1-(5-(5-fluoro-4-(octahydro-3,3-dimethylindolizin-7-ylamino)pyrimidin-2-ylamino)-2-cyclopropyl-4-fluorophenyl)-4-methyl-1H-tetrazol-5(4H)-one], for which, under “Homo sapiens, T-cell, 24 h”, the EC50 lay in the range of 1 to 10 µM.

On to `Cn1nnn(-c2cc(Nc3ncc(F)c(NC4CCN5CCCC5C4)n3)c(F)cc2C2CC2)c1=O` (racemic) [Compound 27, (±)-1-(5-(5-fluoro-4-(octahydroindolizin-7-ylamino)pyrimidin-2-ylamino)-2-cyclopropyl-4-fluorophenyl)-4-methyl-1H-tetrazol-5(4H)one], for which, under “Homo sapiens, T-cell, 24 h”, the 50% effective concentration (EC50) is 1 to 10 µM.

Regarding `Cn1nnn(-c2cc(Nc3ncc(F)c(N[C@@H]4C[C@@H]5CCC(=O)N5C(C)(C)C4)n3)c(F)cc2C2CC2)c1=O` (racemic) [Compound 31, 1-(5-(5-fluoro-4-(hexahydro-5,5-dimethylindolizin-3(5H)-one-7-ylamino)pyrimidin-2-ylamino)-2-cyclopropyl-4-fluorophenyl)-4-methyl-1H-tetrazol-5(4H)-one], the EC50 (Homo sapiens, T-cell, 24 h) lay in the range of 1 to 10 µM.

In the case of `Cn1nnn(-c2cc(Nc3ncc(F)c(N[C@H]4C[C@@H]5CCC(=O)N5C(C)(C)C4)n3)c(F)cc2C2CC2)c1=O` (racemic) [Compound 32, 1-(5-(5-fluoro-4-(hexahydro-5,5-dimethylindolizin-3(5H)-one-7-ylamino)pyrimidin-2-ylamino)-2-cyclopropyl-4-fluorophenyl)-4-methyl-1H-tetrazol-5(4H)-one], the EC50 (Homo sapiens, T-cell, 24 h) is 1 to 10 µM.

For the compound `Cn1nnn(-c2cc(Nc3ncc(F)c(NC4CC5CCCN5C(C)(C)C4)n3)ccc2OC2COC2)c1=O` (racemic) [Compound 38, 1-(5-(5-fluoro-4-(octahydro-5,5-dimethylindolizin-7-ylamino)pyrimidin-2-ylamino)-2-(oxetan-3-yloxy)phenyl)-4-methyl-1H-tetrazol-5(4H)-one], for the setting “Homo sapiens, T-cell, 24 h”, the EC50 was in the range of 0.1 to 0.5 µM.

As for `CC1(C)C[C@H](Nc2nc(Nc3cc(-n4cnnn4)c(C4CC4)cc3F)ncc2F)C[C@@H]2CCCN21` (racemic) [Compound 53, (±)-N^2-(4-cyclopropyl-2-fluoro-5-(1H-tetrazol-1-yl)phenyl)-5-fluoro-n^4-(octahydro-5,5-dimethylindolizin-7-yl)pyrimidine-2,4-diamine], the EC50 (Homo sapiens, T-cell, 24 h) was less than 0.1 µM.

`CC1(C)CC(Nc2nc(Nc3ccc(O[C@@H]4CCOC4)c(C#N)c3)ncc2F)CC2CCCN21` (mixture of isomers) [Compound 57, 2-((R)-tetrahydrofuran-3-yloxy)-5-(5-fluoro-4-(octahydro-5,5-dimethylindolizin-7-ylamino)pyrimidin-2-ylamino)benzonitrile] registered an EC50 (Homo sapiens, T-cell, 24 h) of 0.1 to 0.5 µM.

The compound `CC1(C)CC(Nc2nc(Nc3ccc(O[C@H]4CCOC4)c(C#N)c3)ncc2F)CC2CCCN21` (mixture of isomers) [Compound 60, 2-((S)-tetrahydrofuran-3-yloxy)-5-(5-fluoro-4-(octahydro-5,5-dimethylindolizin-7-ylamino)pyrimidin-2-ylamino)benzonitrile] displayed an EC50 (Homo sapiens, T-cell, 24 h) of 0.1 to 0.5 µM.

`Cn1nnn(-c2cc(Nc3ncc(C#N)c(N[C@@H]4C[C@@H]5CCCN5C(C)(C)C4)n3)c(F)cc2C2CC2)c1=O` (racemic) [Compound 66, 4-((R/S,S/R)-Octahydro-5,5-dimethylindolizin-7-ylamino)-2-(4-cyclopropyl-2-fluoro-5-(4,5-dihydro-4-methyl-5-oxotetrazol-yl)phenylamino) pyrimidine-5-carbonitrile] yielded an EC50 (Homo sapiens, T-cell, 24 h) of less than 0.1 µM.

As for `CC1(C)Oc2ccc(Nc3ncc(F)c(N[C@H]4C[C@@H]5CCCN5C(C)(C)C4)n3)cc2-n2nnnc21` (single isomer, unassigned) [Compound 3, N2-(4,4-dimethyl-4H-benzo[b]tetrazolo[1,5-d][1,4]oxazin-8-yl)-5-fluoro-N4-(octahydro-5,5-dimethylindolizin-7-amine)pyrimidine-2,4-diamine], the EC50 is 0.5 to 1 µM.

`CC(C)N1CCC(Oc2ccc(Nc3ncc(F)c(N[C@H]4C[C@H]5CCCN5C(C)(C)C4)n3)cc2OC(F)F)CC1` (single isomer, unassigned) [Compound 7, (R/S, S/R, R/R, S/S)-N^2-(4-(1-isopropylpiperidin-4-yloxy)-3-(difluoromethoxy)phenyl)-5-fluoro-N^4-(octahydro-5,5-dimethylindolizin-7-yl)pyrimidine-2,4-diamine]: the EC50 is 1 to 10 µM.

In turn, `CC(C)N1CCC(Oc2ccc(Nc3ncc(F)c(N[C@@H]4C[C@H]5CCCN5C(C)(C)C4)n3)cc2OC(F)F)CC1` (single isomer, unassigned) [Compound 8, (R/S, S/R, R/R, S/S)-N^2-(4-(1-isopropylpiperidin-4-yloxy)-3-(difluoromethoxy)phenyl)-5-fluoro-N^4-(octahydro-5,5-dimethylindolizin-7-yl)pyrimidine-2,4-diamine] displayed an EC50 of 0.5 to 1 µM.

In the case of `CC(C)N1CCC(Oc2ccc(Nc3ncc(F)c(N[C@H]4C[C@@H]5CCCN5C(C)(C)C4)n3)cc2OC(F)F)CC1` (single isomer, unassigned) [Compound 9, (R/S, S/R, R/R, S/S)-N^2-(4-(1-isopropylpiperidin-4-yloxy)-3-(difluoromethoxy)phenyl)-5-fluoro-N^4-(octahydro-5,5-dimethylindolizin-7-yl)pyrimidine-2,4-diamine], the EC50 was in the range of 0.1 to 0.5 µM.

`CC(C)N1CCC(Oc2ccc(Nc3ncc(F)c(N[C@@H]4C[C@@H]5CCCN5C(C)(C)C4)n3)cc2OC(F)F)CC1` (single isomer, unassigned) [Compound 10, (R/S, S/R, R/R, S/S)-N^2-(4-(1-isopropylpiperidin-4-yloxy)-3-(difluoromethoxy)phenyl)-5-fluoro-N^4-(octahydro-5,5-dimethylindolizin-7-yl)pyrimidine-2,4-diamine]: the EC50 is 0.1 to 0.5 µM.

The compound `COc1cc(Nc2ncc(F)c(N[C@H]3C[C@H]4CCCN4C(C)(C)C3)n2)cc(-n2nnnc2C)c1` (single isomer, unassigned) [Compound 11, (R/S, S/R, R/R, S/S)-5-fluoro-N4-(octahydro-5,5-dimethylindolizin-7-yl)N2-(3-methoxy-5-(5-methyl-1H-tetrazol-1-yl)phenyl)pyrimidine-2,4-diamine] registered an EC50 of 1 to 10 µM.

In turn, `COc1cc(Nc2ncc(F)c(N[C@@H]3C[C@H]4CCCN4C(C)(C)C3)n2)cc(-n2nnnc2C)c1` (single isomer, unassigned) [Compound 12, (R/S, S/R, R/R, S/S)-5-fluoro-N4-(octahydro-5,5-dimethylindolizin-7-yl)N2-(3-methoxy-5-(5-methyl-1H-tetrazol-1-yl)phenyl)pyrimidine-2,4-diamine] registered an EC50 of 0.5 to 1 µM.

As a reminder, the EC50 is the midpoint of the concentration-response curve. Higher therefore signals a need for much substance.
